{"source": "patent US20100311759A1", "about": "“ANTIPARASITIC AGENT FOR FISH AND METHOD OF CONTROLLING PROLIFERATION OF FISH PARASITES” (NIPPON SUISAN KAISHA, LTD., priority 2007, published 2010)", "key": {"Cryptocaryon irritans [1]": {"system": "Cryptocaryon irritans", "assay": "Examples 3 and 4: oral administration of single inhibitors and a combination, body length of Cryptocaryon irritans on Pagrus major (FIG. 4)", "assay_type": "in vivo", "settings": "60 parasites per plot, P≦0.01", "source_text": "During the rearing period, 1.4 liters/min. of seawater was supplied. […] After exposure, seven fish each were moved into six 100-liter aquariums. During the rearing period, 1.4 liters/min. of seawater was supplied."}, "Cryptocaryon irritans [2]": {"system": "Cryptocaryon irritans", "assay": "Example 1: oral administration against parasitism of Cryptocaryon irritans on Pagrus major (1)", "settings": "50 mg trimethoprim/kg body weight/day orally three days; three days after the exposure"}, "[3]": {"settings": "60 mg/kg fish body weight/day for three days"}, "[4]": {"settings": "300 mg/kg fish body weight/day for three days"}}, "data": [{"compound": "N=C(N)c1ccc(OCCCCCOc2ccc(C(=N)N)cc2)cc1.O=S(=O)(O)CCO.O=S(=O)(O)CCO", "note": "[PMD, isethionic acid pentamidine salt]", "values": [{"measurement": "growth rate of parasites (body length as percentage of control plot), difference from control plot", "setting": "Cryptocaryon irritans [1]; [3]", "result": "statistically significant difference"}]}, {"compound": "CN(Cc1cnc2nc(N)nc(N)c2n1)c1ccc(C(=O)N[C@@H](CCC(=O)O)C(=O)O)cc1", "note": "[methotrexate]", "values": [{"measurement": "growth rate of parasites (body length as percentage of control plot), difference from control plot", "setting": "Cryptocaryon irritans [1]; [3]", "result": "statistically significant difference"}]}, {"compound": "COc1cc(NS(=O)(=O)c2ccc(N)cc2)nc(OC)n1", "note": "[sulfadimethoxine]", "values": [{"measurement": "growth rate of parasites (body length as percentage of control plot), difference from control plot", "setting": "Cryptocaryon irritans [1]; [4]", "result": "statistically significant difference"}]}, {"compound": "Cc1ccnc(NS(=O)(=O)c2ccc(N)cc2)n1", "note": "[sulfamerazine]", "values": [{"measurement": "growth rate of parasites (body length as percentage of control plot), difference from control plot", "setting": "Cryptocaryon irritans [1]; [4]", "result": "statistically significant difference"}]}, {"compound": "Cc1nnc(NS(=O)(=O)c2ccc(N)cc2)s1", "note": "[sulfamethizole]", "values": [{"measurement": "growth rate of parasites (body length as percentage of control plot), difference from control plot", "setting": "Cryptocaryon irritans [1]; [4]", "result": "statistically significant difference"}]}, {"compound": "COc1cc(NS(=O)(=O)c2ccc(N)cc2)ncn1", "note": "[sulfamonomethoxine]", "values": [{"measurement": "growth rate of parasites (body length as percentage of control plot), difference from control plot", "setting": "Cryptocaryon irritans [1]; [4]", "result": "statistically significant difference"}]}, {"compound": "Cc1cc(NS(=O)(=O)c2ccc(N)cc2)nc(C)n1", "note": "[sulfisomidine]", "values": [{"measurement": "growth rate of parasites (body length as percentage of control plot), difference from control plot", "setting": "Cryptocaryon irritans [1]; [4]", "result": "statistically significant difference"}]}, {"compound": "COc1cc(Cc2cnc(N)nc2N)cc(OC)c1OC", "note": "[trimethoprim]", "values": [{"measurement": "growth rate of parasites (body length as percentage of control plot), difference from control plot", "setting": "Cryptocaryon irritans [1]; [3]", "result": "statistically significant difference"}, {"measurement": "number of parasites (left gills, FIG. 1, control plot = one)", "setting": "Cryptocaryon irritans [2]", "result": "tend to be large"}]}, {"compound": "sulfisozole", "values": [{"measurement": "growth rate of parasites (body length as percentage of control plot), difference from control plot", "setting": "Cryptocaryon irritans [1]; [4]", "result": "statistically significant difference"}]}]}
